This is an account of results in patent publication US9801878B2, “Quinoline derivatives as PDE10A enzyme inhibitors” (H. Lundbeck A/S, priority 2011, dated 2017).

Test [1] deals with PDE10A enzyme (Homo sapiens (Human), UniProt Q9Y233). Nature of the test: PDE10A inhibition assay. The test is classed as biochemical. The method, then:
Active PDE10A enzyme is prepared in a number of ways for use in PDE assays (Loughney, K. et al. Gene 1999, 234, 109-117; Fujishige, K. et al. Eur J Biochem. 1999, 266, 1118-1127 and Soderling, S. et al. Proc. Natl. Acad. Sci. 1999, 96, 7071-7076). PDE10A can be expressed as full-length proteins or as truncated proteins, as long as they express the catalytic domain. PDE10A can be prepared in different cell types, for example insect cells or E. coli. […]
A PDE10A assay may for example, be performed as follows: The assay is performed in 60 uL samples containing a fixed amount of the relevant PDE enzyme (sufficient to convert 20-25% of the cyclic nucleotide substrate), a buffer (50 mM HEPES7.6; 10 mM MgCl2; 0.02% Tween20), 0.1 mg/ml BSA, 225 pCi of ^3H-labelled cyclic nucleotide substrate, tritium labeled cAMP to a final concentration of 5 nM and varying amounts of inhibitors. […] The beads are allowed to settle for one hr in the dark before the plates are counted in a Wallac 1450 Microbeta counter. The measured signal can be converted to activity relative to an uninhibited control (100%) and IC50 values can be calculated using the Xlfit extension to EXCEL.

The conditions of test [2]: rats, cited from earlier work.
The conditions of test [3]: rats; cited from earlier work.
For test [4] the following is noted: rats; cited from earlier work. The source holds these as a separate data set.

The structures appear in SMILES notation.

Chain of PDE10A enzyme (Q9Y233 716-1055): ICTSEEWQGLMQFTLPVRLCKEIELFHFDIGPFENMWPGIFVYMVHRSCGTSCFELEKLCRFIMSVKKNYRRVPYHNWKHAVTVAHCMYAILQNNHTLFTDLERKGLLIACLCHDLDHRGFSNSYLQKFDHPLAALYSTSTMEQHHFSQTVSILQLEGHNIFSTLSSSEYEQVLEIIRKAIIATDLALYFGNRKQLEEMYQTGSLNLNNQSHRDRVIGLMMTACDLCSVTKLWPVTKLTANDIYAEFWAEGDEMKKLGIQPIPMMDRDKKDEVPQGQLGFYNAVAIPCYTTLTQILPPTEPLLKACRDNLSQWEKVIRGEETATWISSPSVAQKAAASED

For the compound `Cc1ncc(C)n2nc(CCc3ccc4ccccc4n3)nc12` [2-[2-(5,8-Dimethyl-[1,2,4]triazolo[1,5-a]pyrazin-2-yl)-ethyl]-quinoline], half-maximal inhibition in test [1] (IC50) was put at 7.4 nM.
As for `COc1ccc(Cc2nccc3cc(OC)c(OC)cc23)cc1OC` [Papaverine], the “catalepsy on its own” value in test [2] (alone) is “did not cause catalepsy on its own”. In test [2] (with haloperidol), the “cataleptic effect of the D2 receptor antagonist haloperidol” value is “potentiated the cataleptic effect”. The “hyperactivity induced by PCP” value in test [3] is recorded as “reduced hyperactivity”. For the same compound, the “reduction of amphetamine induced hyperactivity” value in test [4] is recorded as “insignificant”.
